As a reminder, the IC50 is the point on the concentration scale where inhibition reaches its midpoint. A lower IC50 goes with greater potency in that assay.

The values below come from paper PMC7522982, “PKIS deep dive yields a chemical starting point for dark kinases and a cell active BRSK2 inhibitor” (Scientific Reports, 2020).

The subject of one assay is 60 cancer cell lines. Details: method as in PMID 26501955. The settings on record: cited from earlier work.
In another assay the test system is PDGFRβ. Set-up: method as in PMID 26501955. As to conditions: cited from earlier work.
Another assay has as its target STK33 (Homo sapiens, UniProt Q9BYT3). Set-up: purchased Eurofins; method as in earlier work. As to conditions: cited from earlier work.
The next assay addresses NUAK1/ARK5 (Homo sapiens, UniProt O60285). The assay can be described thus: Eurofins kinase enzymatic radiometric assay. In kind it is biochemical. Details: purchased Eurofins. As to conditions: Km of ATP, 9-point curve in duplicate. The source says: (§1) Due to our interest in the activity of GW296115 on several understudied IDG kinases, we collected full dose–response curves for all wild type kinases inhibited ≥ 75% in the DiscoverX panel that were offered by Eurofins. Having data in orthogonal formats is a powerful way to confirm inhibitory activity and adds rigor to our results. Eurofins has kinase enzymatic radiometric assays for 35 of the kinases on this list (Table S2) and a kinase enzymatic LANCE assay for one additional kinase (MAP2K5/MEK5).
(§2) Eurofins kinase enzymatic radiometric assays were carried out at the Km of ATP in dose–response (9-pt curve in duplicate) for each kinase for which it was offered.

The target in the next assay is MINK1/MINK (Homo sapiens, UniProt Q8N4C8). The assay can be described thus: Eurofins kinase enzymatic radiometric assay. Type of assay: biochemical. Details: purchased Eurofins. As to conditions: Km of ATP, 9-point curve in duplicate.
MINK1/MINK, sequence (Q8N4C8 whole entry): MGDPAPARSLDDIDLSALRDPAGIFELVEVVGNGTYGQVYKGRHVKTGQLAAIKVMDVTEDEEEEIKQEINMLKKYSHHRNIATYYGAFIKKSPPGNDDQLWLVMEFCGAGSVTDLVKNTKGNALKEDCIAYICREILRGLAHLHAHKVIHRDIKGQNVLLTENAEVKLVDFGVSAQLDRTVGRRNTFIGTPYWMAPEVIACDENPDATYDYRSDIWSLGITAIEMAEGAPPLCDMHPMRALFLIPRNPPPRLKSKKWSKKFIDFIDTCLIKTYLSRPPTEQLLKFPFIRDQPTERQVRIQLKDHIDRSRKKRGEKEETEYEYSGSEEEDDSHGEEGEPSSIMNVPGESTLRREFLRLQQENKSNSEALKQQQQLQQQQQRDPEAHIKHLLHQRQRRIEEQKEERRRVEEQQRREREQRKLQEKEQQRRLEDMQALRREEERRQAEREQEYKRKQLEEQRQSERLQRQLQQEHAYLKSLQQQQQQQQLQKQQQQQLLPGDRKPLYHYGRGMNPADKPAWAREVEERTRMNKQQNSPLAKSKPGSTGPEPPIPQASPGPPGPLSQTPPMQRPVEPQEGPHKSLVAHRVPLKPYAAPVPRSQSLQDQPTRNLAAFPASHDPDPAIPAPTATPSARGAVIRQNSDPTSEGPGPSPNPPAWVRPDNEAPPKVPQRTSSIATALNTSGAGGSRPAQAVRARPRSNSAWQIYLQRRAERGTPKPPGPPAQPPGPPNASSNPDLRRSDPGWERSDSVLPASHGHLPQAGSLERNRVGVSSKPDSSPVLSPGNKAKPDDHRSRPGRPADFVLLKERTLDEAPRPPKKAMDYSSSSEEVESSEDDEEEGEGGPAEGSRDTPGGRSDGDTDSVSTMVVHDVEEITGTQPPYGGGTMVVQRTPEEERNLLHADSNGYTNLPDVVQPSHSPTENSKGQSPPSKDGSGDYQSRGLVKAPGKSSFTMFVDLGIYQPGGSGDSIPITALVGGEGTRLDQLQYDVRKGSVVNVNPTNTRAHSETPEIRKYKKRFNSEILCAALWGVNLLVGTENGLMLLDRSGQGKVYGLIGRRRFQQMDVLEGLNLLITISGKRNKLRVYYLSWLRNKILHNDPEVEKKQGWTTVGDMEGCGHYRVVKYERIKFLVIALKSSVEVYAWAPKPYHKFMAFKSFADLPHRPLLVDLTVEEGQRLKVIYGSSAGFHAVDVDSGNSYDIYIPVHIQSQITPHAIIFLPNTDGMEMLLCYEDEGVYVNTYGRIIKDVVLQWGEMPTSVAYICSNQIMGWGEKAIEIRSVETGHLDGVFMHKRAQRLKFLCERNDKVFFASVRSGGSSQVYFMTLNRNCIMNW
From the text: as §1, §2

The next assay has as its target SGK3 (Homo sapiens, UniProt Q96BR1). Put plainly: Eurofins kinase enzymatic radiometric assay. As to conditions: Km of ATP, 9-point curve in duplicate. Set-up: purchased Eurofins. Type of assay: biochemical.
From the text: as §1, §2

A further assay has as its target T1, BRSK2 (Homo sapiens, UniProt Q8IWQ3).
T1 sequence (Q8IWQ3 1-736): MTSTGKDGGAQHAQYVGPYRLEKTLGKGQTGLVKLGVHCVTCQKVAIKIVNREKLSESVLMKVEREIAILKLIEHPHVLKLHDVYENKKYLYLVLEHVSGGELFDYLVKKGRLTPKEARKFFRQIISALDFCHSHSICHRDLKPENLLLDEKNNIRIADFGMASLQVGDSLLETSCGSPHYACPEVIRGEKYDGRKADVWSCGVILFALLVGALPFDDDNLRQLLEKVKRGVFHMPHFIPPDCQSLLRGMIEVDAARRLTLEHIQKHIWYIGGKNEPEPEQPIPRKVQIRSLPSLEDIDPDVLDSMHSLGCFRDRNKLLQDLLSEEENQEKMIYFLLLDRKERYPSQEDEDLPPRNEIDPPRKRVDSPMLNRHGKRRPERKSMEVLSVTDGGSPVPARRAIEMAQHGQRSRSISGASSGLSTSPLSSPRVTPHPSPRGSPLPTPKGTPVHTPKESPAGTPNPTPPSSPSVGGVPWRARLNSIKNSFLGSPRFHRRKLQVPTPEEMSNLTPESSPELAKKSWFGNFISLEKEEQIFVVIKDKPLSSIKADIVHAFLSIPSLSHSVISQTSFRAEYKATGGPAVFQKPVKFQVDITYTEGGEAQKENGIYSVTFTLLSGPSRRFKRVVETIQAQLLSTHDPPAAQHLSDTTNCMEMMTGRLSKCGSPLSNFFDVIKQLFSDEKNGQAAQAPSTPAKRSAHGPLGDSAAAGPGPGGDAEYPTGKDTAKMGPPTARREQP
Put plainly: Eurofins kinase enzymatic radiometric assay. Type of assay: biochemical. Details: purchased Eurofins. As to conditions: Km of ATP, 9-point curve in duplicate.
From the text: as §1, §2

The target in a further assay is AURKB (Homo sapiens, UniProt Q96GD4). Put plainly: Eurofins kinase enzymatic radiometric assay. Type of assay: biochemical. Details: purchased Eurofins. As to conditions: Km of ATP, 9-point curve in duplicate.
AURKB, sequence (Q96GD4 whole entry): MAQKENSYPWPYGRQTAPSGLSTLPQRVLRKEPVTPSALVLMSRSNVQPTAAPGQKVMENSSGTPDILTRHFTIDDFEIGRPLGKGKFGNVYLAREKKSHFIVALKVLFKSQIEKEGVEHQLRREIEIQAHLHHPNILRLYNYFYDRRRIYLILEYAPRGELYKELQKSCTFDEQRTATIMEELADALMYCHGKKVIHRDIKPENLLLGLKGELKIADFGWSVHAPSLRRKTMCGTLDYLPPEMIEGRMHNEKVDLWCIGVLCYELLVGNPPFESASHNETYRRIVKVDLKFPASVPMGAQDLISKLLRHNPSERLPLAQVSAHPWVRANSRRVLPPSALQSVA
From the text: as §1, §2

In another assay the target is DMPK (Homo sapiens, UniProt Q09013). The assay can be described thus: Eurofins kinase enzymatic radiometric assay. Type of assay: biochemical. Set-up: purchased Eurofins. As to conditions: Km of ATP, 9-point curve in duplicate.
DMPK, sequence (Q09013 whole entry): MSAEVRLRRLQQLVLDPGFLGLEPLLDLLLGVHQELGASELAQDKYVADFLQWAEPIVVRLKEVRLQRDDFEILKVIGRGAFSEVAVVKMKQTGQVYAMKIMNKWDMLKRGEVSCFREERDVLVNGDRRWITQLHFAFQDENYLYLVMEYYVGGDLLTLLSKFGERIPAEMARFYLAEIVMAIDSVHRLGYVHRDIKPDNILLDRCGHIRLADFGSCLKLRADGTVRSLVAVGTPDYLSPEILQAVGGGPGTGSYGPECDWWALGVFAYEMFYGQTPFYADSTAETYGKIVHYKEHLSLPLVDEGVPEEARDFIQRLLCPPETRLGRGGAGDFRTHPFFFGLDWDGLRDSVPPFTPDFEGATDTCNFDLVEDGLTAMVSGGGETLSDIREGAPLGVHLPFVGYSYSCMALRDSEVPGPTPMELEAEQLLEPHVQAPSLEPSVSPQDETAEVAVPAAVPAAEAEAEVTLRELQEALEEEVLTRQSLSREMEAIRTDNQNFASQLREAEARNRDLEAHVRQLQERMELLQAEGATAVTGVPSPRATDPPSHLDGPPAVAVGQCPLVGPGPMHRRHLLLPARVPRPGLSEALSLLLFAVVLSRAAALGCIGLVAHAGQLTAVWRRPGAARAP
From the text: as §1, §2

A further assay deals with CHEK2 (Homo sapiens, UniProt O96017). The assay can be described thus: Eurofins kinase enzymatic radiometric assay. Type of assay: biochemical. The settings on record: Km of ATP, 9-point curve in duplicate. Set-up: purchased Eurofins.
From the text: as §1, §2

For the next assay, the target named is PLK4 (Homo sapiens, UniProt O00444). Put plainly: Eurofins kinase enzymatic radiometric assay. Type of assay: biochemical. Details: purchased Eurofins. As to conditions: Km of ATP, 9-point curve in duplicate.
PLK4, sequence (O00444 whole entry): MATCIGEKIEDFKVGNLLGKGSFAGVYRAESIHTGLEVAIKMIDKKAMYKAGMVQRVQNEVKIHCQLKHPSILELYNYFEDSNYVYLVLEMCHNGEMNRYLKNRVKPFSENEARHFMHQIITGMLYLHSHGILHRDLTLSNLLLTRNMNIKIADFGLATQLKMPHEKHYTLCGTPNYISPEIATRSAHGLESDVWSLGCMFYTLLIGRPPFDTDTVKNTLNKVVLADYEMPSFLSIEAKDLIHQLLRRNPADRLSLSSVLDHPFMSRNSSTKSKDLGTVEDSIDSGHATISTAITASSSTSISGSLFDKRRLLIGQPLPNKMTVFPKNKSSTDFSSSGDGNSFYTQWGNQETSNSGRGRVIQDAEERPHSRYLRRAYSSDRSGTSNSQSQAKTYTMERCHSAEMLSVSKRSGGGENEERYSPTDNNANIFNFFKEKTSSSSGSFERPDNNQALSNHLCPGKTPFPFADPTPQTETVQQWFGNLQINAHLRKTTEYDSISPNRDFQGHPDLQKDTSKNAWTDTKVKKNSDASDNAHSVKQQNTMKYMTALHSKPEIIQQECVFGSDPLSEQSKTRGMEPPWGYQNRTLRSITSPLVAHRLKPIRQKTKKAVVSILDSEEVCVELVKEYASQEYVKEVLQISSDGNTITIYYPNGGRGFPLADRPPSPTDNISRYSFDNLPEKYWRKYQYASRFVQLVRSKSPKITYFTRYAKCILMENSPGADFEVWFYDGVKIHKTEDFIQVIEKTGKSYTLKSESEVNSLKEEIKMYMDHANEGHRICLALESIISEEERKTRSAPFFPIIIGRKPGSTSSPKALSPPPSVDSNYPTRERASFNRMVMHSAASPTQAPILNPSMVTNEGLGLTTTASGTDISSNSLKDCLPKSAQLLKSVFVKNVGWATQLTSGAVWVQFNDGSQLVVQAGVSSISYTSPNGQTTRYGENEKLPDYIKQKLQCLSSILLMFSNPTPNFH
From the text: as §1, §2

In a further assay the target is T2, BRSK1 (Homo sapiens, UniProt Q8TDC3).
T2 sequence (Q8TDC3 1-778): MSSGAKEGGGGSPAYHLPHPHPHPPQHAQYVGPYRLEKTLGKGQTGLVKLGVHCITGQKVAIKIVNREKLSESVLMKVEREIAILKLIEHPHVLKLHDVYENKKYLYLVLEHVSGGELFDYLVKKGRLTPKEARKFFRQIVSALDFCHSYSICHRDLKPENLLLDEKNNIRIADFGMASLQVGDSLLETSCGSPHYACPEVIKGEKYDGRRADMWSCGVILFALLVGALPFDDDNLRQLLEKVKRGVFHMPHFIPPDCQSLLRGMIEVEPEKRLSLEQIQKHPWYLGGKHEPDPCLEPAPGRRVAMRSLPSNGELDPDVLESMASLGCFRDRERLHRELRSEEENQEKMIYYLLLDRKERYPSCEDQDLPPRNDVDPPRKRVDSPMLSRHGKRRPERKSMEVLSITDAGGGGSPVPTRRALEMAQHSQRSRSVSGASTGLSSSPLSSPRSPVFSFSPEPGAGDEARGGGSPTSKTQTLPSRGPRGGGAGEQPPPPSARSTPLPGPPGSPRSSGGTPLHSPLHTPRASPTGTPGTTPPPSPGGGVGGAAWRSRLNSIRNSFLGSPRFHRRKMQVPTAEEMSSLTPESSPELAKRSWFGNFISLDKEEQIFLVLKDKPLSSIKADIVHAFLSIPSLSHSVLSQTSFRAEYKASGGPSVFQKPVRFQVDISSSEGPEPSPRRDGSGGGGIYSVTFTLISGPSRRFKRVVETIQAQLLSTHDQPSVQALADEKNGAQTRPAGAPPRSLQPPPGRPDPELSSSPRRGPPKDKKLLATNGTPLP
The assay can be described thus: Eurofins kinase enzymatic radiometric assay. The settings on record: Km of ATP, 9-point curve in duplicate. In kind it is biochemical. Set-up: purchased Eurofins.
From the text: as §1, §2

The next assay has as its target LRRK2 (Homo sapiens, UniProt Q5S007). Put plainly: Eurofins kinase enzymatic radiometric assay. Set-up: purchased Eurofins. Type of assay: biochemical. As to conditions: Km of ATP, 9-point curve in duplicate.
From the text: as §1, §2

The next assay deals with T3, MAP2K5/MEK5 (Homo sapiens, UniProt Q13163).
T3 construct: purchased Eurofins
T3 sequence (Q13163 whole entry): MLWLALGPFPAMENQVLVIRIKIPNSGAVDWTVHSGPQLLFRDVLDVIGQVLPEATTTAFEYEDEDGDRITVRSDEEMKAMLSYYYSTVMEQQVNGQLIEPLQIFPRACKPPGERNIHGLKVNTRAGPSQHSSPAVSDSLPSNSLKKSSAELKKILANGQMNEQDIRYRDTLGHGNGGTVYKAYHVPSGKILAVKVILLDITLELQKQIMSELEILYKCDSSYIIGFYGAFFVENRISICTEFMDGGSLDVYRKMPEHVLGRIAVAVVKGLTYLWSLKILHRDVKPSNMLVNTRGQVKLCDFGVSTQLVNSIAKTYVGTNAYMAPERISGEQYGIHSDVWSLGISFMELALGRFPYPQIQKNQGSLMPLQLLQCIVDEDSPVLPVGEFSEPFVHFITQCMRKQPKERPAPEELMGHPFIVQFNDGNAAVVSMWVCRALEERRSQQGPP
The assay can be described thus: Eurofins kinase enzymatic LANCE assay. Type of assay: biochemical.
From the text: as §1, §2
On the technique in general: In TR-FRET formats the signal depends on donor and acceptor labels being close together.

Another assay concerns the target PIM3 (Homo sapiens, UniProt Q86V86). Set-up: purchased Eurofins; method as in earlier work. As to conditions: cited from earlier work.

STK33, sequence (Q9BYT3 whole entry): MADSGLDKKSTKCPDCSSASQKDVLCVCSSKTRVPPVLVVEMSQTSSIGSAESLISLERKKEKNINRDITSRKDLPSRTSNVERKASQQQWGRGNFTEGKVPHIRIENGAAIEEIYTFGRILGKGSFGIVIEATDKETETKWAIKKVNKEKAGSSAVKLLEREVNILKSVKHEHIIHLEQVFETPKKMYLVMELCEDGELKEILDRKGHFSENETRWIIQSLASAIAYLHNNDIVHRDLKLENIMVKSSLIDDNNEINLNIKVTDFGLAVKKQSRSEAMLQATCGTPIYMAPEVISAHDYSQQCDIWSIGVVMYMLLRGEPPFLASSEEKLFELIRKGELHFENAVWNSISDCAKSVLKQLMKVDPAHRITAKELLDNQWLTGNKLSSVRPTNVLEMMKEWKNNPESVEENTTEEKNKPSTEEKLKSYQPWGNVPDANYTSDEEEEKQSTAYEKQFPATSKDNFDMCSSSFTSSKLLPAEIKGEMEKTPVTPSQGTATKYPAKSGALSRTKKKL
SGK3, sequence (Q96BR1 whole entry): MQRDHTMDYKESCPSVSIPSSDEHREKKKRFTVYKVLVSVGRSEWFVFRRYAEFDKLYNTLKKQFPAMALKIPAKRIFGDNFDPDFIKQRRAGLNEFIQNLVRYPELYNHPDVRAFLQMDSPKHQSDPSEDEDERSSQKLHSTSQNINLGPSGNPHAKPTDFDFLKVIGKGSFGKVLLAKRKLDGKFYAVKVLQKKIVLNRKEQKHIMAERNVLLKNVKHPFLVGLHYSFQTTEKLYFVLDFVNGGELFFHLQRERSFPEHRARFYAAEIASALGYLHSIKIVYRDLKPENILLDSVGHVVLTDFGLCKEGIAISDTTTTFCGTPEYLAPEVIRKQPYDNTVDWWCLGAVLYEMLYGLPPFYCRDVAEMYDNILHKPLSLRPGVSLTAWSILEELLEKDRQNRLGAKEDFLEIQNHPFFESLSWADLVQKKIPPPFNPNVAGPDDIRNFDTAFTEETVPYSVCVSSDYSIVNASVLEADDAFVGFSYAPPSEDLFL

For the molecule `COc1ccc2[nH]c3c4[nH]c5ccc(OC)cc5c4c4c(c3c2c1)C(=O)NC4=O` [GW296115], in the assay on 60 cancer cell lines, the “effect on cell growth, NCI60 panel” value is given as “does not impact cell growth”. For the same molecule, the “Nanosyn % Inhibition at 1 μM” value in the assay with PDGFRβ is listed as 85%. For the same molecule, the results for the “TSA ΔTm at 10 μM (°C)” value on STK33 and on PIM3 were 9.8 °C and 12.0 °C, respectively. For the same molecule, the IC50 was 15 nM at NUAK1/ARK5; 35 nM against MINK1/MINK; above 10000 nM against SGK3; 8.4 nM against BRSK2; 94 nM against AURKB; above 10000 nM against DMPK. In addition, the IC50 on CHEK2 was 2.6 nM; at PLK4, 17 nM; against BRSK1, 21 nM; against LRRK2 it was 25 nM; against MAP2K5/MEK5, above 10000 nM.
